Source: patent US7608564B2, “3-heterocyclyl-substituted benzoyl derivatives” (BASF Aktiengesellschaft, priority 1997, dated 2009)

Q: With `Cn1ncc(C(=O)c2ccc(S(C)(=O)=O)c(C3=NOCC3)c2Cl)c1O` [3.35, 4-[2-Chloro-3-(4,5-dihydroisoxazol-3-yl)-4-methylsulfonyl-benzoyl]-5-hydroxy-1-methyl-1H-pyrazole] as the molecule, how does the melting point read?
A: The melting point was over 250 °C.
